Results published in patent US6841577B2, “Pesticidal activity of plant essential oils and their constituents” (Ecosmart Technologies, Inc., priority 1999, dated 2005).
Read-outs that look alike come from different tables or passages of the source.

Legend:
[1] = system: heart of American cockroach (octopamine receptors); experiment: Heartbeat after application to thoracic segment; format: in vivo; conditions: mean ±SD of three roaches; for Heart beat/30 sec 30 min after treatment: 300 μg applied to thoracic segment; for Heart beat/30 sec before treatment: baseline of the same roaches
Protocol: To further establish the effect of the purified naturally occurring plant essential oils and/or their constituents on the American cockroach, a 300 μg amount of the chemical was applied to the thoracic segment of an intact and alive American cockroach. The heart beats/30 seconds was measured. The heart of the cockroach is known to have a high concentration of octopamine receptors and the heart beat is considered an important measurement to indicate the effect of the applied chemicals to the octopamine receptors.

[2] = system: American cockroach; experiment: Lethal effect of injected test chemicals; format: in vivo; conditions: dead/10
Protocol: Further studies were conducted to determine the LD 50 of purified naturally occurring plant essential oils and/or their constituents. […] Ten roaches per dose were used. Another group of ten roaches received the same volume of vehicle only (0.5 μl) and used as a control group. Mortality was recorded 24, 48, and 72 hours after exposure.

[3] = system: American cockroach; experiment: Cross walk jar test on pre-treated surface; format: in vivo
Protocol: In the test, a known amount of the test material was dissolved in a known volume of acetone and applied to small jars and all inner bottom surfaces were covered. The bottom surface of each jar is approximately 250 cm^2. One hour after the acetone had completely evaporated, five American cockroaches were introduced to each jar. Control jars were treated exactly as above but with the known amount of acetone only.
The results of the “cross walk” jar tests are in Table 8 in which the “4-blend” was dispersed as an aerosol and a dust in the jar.
In this test, the acetone solution of the test material was placed in the jar and the roach inserted into the jar after the acetone had evaporated.
Mortality was measured 24 hours after exposure.
The “4-blend” and the individual constituents of the “4-blend” were tested using 10 cockroaches for each “cross walk” treatment. In addition, pyrethrins were tested separately and mixed with the various components.
A concentration of 100 mg/jar was used for each individual alone. In the co-treatment experiment without pyrethrins, 20 mg/jar for each chemical was used. In the cotreatment experiment with pyrethrins, 20 mg/jar for the naturally occurring plant material was used. Pyrethrins was used at 2 mg/jar. […] It was noted above that the mortality is dependent upon concentration. […] Some synergism is found between pyrethrins and either α-terpineol or benzyl alcohol.

[4] = system: 3rd instar Asian armyworms (Spodoptera litura); conditions: control 0
Protocol: Additional synergistic testing was conducted on 3rd instar Asian armyworms (Spodoptera litura). […] The number of replicates is given as “n”.

[5] = system: octopamine receptor sites; experiment: 3H-OA binding to ventral nerve cord / synaptosomal membrane protein; parameters: species or system American cockroach (Periplaneta americana); conditions: for cpm 3H-OA/500 μg protein: Table 3; for classification with respect to octopamine receptor sites (OAR): based on the binding data of Tables 1-3
Protocol: Different concentrations of unlabeled octopamine (OA) (20, 30, 40, 50, 60, 100 ng) were tested on the binding activity as a positive control. Test chemicals were dissolved in acetone before the assay. Different concentrations of the test chemicals were added directly to the protein preparation from ventral nerve cord. The same amount of solvent (1 μl 0.1%) were added to the control samples. All assays with test chemicals were run in the presence and absence of 50 ng OA. All chemicals were added to the protein extract 20 min prior the addition of radio labeled ^3H-OA(100,000 cpm/sample). After 30 min at 24° C. of the addition of ^3H-OA, the reaction was stopped by the addition of ice-cold Tris buffer, and the samples were filtered through GF/C membrane using water vacuum. After two washes each with 5 ml Tris buffer, the membrane was removed, air dried and the radioactivity was counted in 4 ml liquid scintillation solution. The specific binding was calculated as the difference between the values in the presence and absence of unlabeled OA. All data are calculated as the mean±standard deviation of 5 assays.
Additional tests were conducted on radio labeled octopamine using other purified naturally occurring materials as given in Tables 2 and 3.

[6] = system: 2nd instar green peach aphid nymphs; experiment: Cabbage leaf disc bioassay; format: in vivo
Protocol: A bioassay similar to that for S. litura larvae was used for additional larvae. Cabbage leaf discs were dipped in emulsified aqueous solutions, diluted 1:200 in water, on which 2nd instar green peach aphid nymphs were placed. For each treatment there was 10 aphids per disc with 5 replicates; each experiment was replicated in time (successive days) from 3-5 times. After 24 hours, aphids were reported as being (1) on the leaf disc and feeding; (2) alive, but walking off the disc; or (3) dead. In the field, aphids which cease feeding and abandon a host plant are very unlikely to survive.

[7] = 500 ng/ml, solvent control 1385 ± 101

OC/C=C/c1ccccc1 [Cinnamic Alcohol]
Heart beat/30 sec 30 min after treatment [1]: 54 ± 3 beat/30 sec | Heart beat/30 sec before treatment [1]: 52 ± 2 beat/30 sec

OCCc1ccccc1 [phenethyl alcohol]
Mortality ([2]; 500 μg/roach injected into thoracic and abdominal segments, 24 hr.): 0/10 | Mortality ([2]; 500 μg/roach injected, 48 hr.): 0/10 | Mortality ([2]; 500 μg/roach injected, 72 hr., control 1/10): 0/10 | Heart beat/30 sec 30 min after treatment [1]: 29 ± 2 beat/30 sec | Heart beat/30 sec before treatment [1]: 47 ± 2 beat/30 sec | mortality at 100 mg ([3]; Periplaneta americana, 24 h): 0% | mortality at 100 mg ([3]; Periplaneta americana, 48 h): 0% | mortality at 100 mg ([3]; Periplaneta americana, 72 h): 0%

CC(=O)OCc1ccccc1 [Benzyl Acetate]
Heart beat/30 sec 30 min after treatment [1]: 42 ± 1 beat/30 sec | Heart beat/30 sec before treatment [1]: 45 ± 2 beat/30 sec

Cc1ccc(C(C)C)c(O)c1 [Thymol]
Mortality (%) ([4]; diluted 1:400 with water, n = 50, Table 12): 98% | Mortality (%) ([4]; dilution rate 1:500, n = 150, Table 14 right): 24.5% | Mortality (%) ([4]; n = 50, Table 13 right, 1:500 printed for Thymol only): 29% | cpm 3H-OA/500 μg protein [5, 7]: 1310 ± 91 cpm 3H-OA/500 μg protein | cpm 3H-OA/500 μg protein ([5]; 1000 ng/ml, solvent control 1915 ± 110): 806 ± 71 cpm 3H-OA/500 μg protein | classification with respect to octopamine receptor sites (OAR) [5]: Non-OAR Specific Toxicants | mortality at 40 mg ([3]; Periplaneta americana, 24 h): 80% | mortality at 100 mg ([3]; Periplaneta americana, 24 h): 100%

COC(=O)c1ccccc1O [Methyl salicylate]
activity/binding at octopamine receptor sites, in words [5]: antagonists which are most strongly bound | agonist/antagonist note to 3H-OA binding ([5]; 500 ng/ml): antagonist | cpm 3H-OA/500 μg protein [5, 7]: 0084 ± 009 cpm 3H-OA/500 μg protein | classification with respect to octopamine receptor sites (OAR) [5]: extremely high OAR antagonists | mortality at 10 mg ([3]; Periplaneta americana, 24 h): 0% | mortality at 20 mg ([3]; Periplaneta americana, 24 h): 20% | mortality at 30 mg ([3]; Periplaneta americana, 24 h): 40% | mortality at 40 mg ([3]; Periplaneta americana, 24 h): 80% | mortality at 50 mg ([3]; Periplaneta americana, 24 h): 100% | pesticidal activity against cockroaches, in words ([3]; in vivo): high pesticidal activity

OCc1ccccc1 [Benzyl Alcohol]
Heart beat/30 sec 30 min after treatment [1]: 39 ± 2 beat/30 sec | Heart beat/30 sec before treatment [1]: 45 ± 3 beat/30 sec | mortality at 100 mg ([3]; Periplaneta americana, 24 h): 0% | mortality at 100 mg ([3]; Periplaneta americana, 48 h): 20% | mortality at 100 mg ([3]; Periplaneta americana, 72 h): 40% | mortality at 10 mg ([3]; Periplaneta americana, inhaled or nasal): 100% | activity on green peach aphid nymphs, in words ([6]; 1:200 dilution): relatively inactive | Percentage of aphids Walking (off disc) ([6]; diluted 1:200 in water, after 24 hours, n = 250, Table 16, control 23.4): 22.3% | Percentage of aphids Dead ([6]; diluted 1:200 in water, after 24 hours, n = 250, Table 16, control 24.8): 32.8% | Percentage of aphids Feeding ([6]; diluted 1:200 in water, after 24 hours, n = 250, Table 16, control 51.7): 44.5%
